Experiments:
Type in all cases: cell-based
fibroblasts [1] = assay: Telomere length by qPCR (T/S ratio) in H2O2-stimulated fibroblasts; settings: positive control 1 mg/mL; cells from adult; H2O2 stimulation three days, 2 hours each; five passages
Procedure: Fibroblasts were seeded into a 6-well plate at a seeding density of 2.2×10^5 cells/well and incubated overnight in an incubator (37° C., 5% CO2). When the confluence reached 40%-60%, 2 mL of culture medium containing a corresponding concentration of a test substance was added to each well according to different groups. The BC group was a blank control group, wherein the cells were derived from back skin of children aged 7-8 years, and no drug intervention was performed during cultivation. The NC group was a negative control group, wherein the cells were derived from back skin of an adult. When the confluence reached 40%-60%, H2O2 stimulation was applied for three consecutive days, with each stimulation lasting 2 hours, and samples were collected for detection after continuous passaging for five passages. The PC group was a positive control group, wherein the cells were derived from back skin of an adult. When the confluence reached 40%-60%, H2O2 stimulation was applied for three consecutive days, with each stimulation lasting 2 hours. During the stimulation period, the cells were cultured in a medium containing cycloastragenol at a final concentration of 1 mg/mL. Samples were collected for detection after continuous passaging for five passages. […] Genomic DNA (gDNA) was obtained using a genomic DNA extraction kit, and telomere length was determined by qPCR using gDNA as a template.

3D epidermal model = assay: Regulation of ceramides and fatty acids in a 3D epidermal model (stratum corneum lipid extraction, LC-MS); settings: 10-HDA 0.0625 mg/mL; relative to untreated control system
Procedure: The model was transferred to a 6-well plate pre-filled with 3.7 mL/well model culture medium and incubated for 24 hours in a CO2 incubator (37° C., 5% CO2). The positive control (PC) group contained WY-14643 (pirinixic acid) at a final concentration of 50 μM. In the sample group, 10-HDA was at a final concentration of 0.0625 mg/mL. After incubation, each model was cut into two halves. One half was used for protein measurement, and the other half was used for lipid extraction and placed in a 6-well plate (the model was stored at −80° C.). For lipid extraction, 1 mL trypsin was added to each well of the 6-well plate and incubated for 30 minutes in an incubator. Water was added on the lid of the 6-well plate. The model and the nylon membrane were separated with tweezers, and viscous material on the stratum corneum was peeled off with tweezers. Water on the stratum corneum was blotted dry with paper, and the stratum corneum was placed into a glass tube. 1 mL chloroform:methanol mixture (chloroform:methanol=1:1) was added to each glass tube. The tube was ultrasonicated in an ice bath for 30 minutes. The supernatant was transferred to a vial and evaporated to dryness. To the dried vial, 160 μL acetonitrile: isopropanol mixture (acetonitrile:isopropanol=1:1) was added, and 20 μL ceramide C12 internal standard solution was added (the ceramide internal standard solution having a concentration of 100 μg/mL, with the internal standard solvent being a 1:1 mixture of acetonitrile and isopropanol). The mixture was ultrasonicated for 10 minutes and shaken for dissolution for 30 minutes, transferred to a sample centrifuge tube, centrifuged at 12,000 rpm for 10 minutes, and 100 μL of the upper layer was transferred into a 250 μL insert. LC-MS detection was performed using a Thermo Fisher Orbitrap Q Exactive™ quadrupole-Orbitrap high-resolution mass spectrometer.
Mass spectrometry conditions were as follows: mass spectrometry analysis was performed using a quadrupole-Orbitrap mass spectrometer equipped with a heated electrospray ionization source. Ion source voltages for positive and negative modes were 3.7 kV and 3.5 kV, respectively. Capillary heating temperature was 320° C. Sheath gas pressure was 30 psi, and auxiliary gas pressure was 10 psi. Heated vaporizer temperature was 300° C. Both sheath gas and auxiliary gas were nitrogen. Collision gas was nitrogen at a pressure of 1.5 mTorr. Full MS scan parameters were: resolution 70,000; automatic gain control target 1×10^6; […] 50 ms; and m/z scan range 50-1500. The LC-MS system was controlled by Xcalibur 2.2 SP1.48 software, and data acquisition was also controlled by the software.

fibroblasts [2] = assay: DNA damage products 8-OHdG (kit) and γ-H2AX (immunofluorescence) in UV-A irradiated fibroblasts; settings: Fibroblast, light or radiation study, 10-HDA 0.25 mg/mL, UV-A 30 J/cm^2, 24 hours after irradiation, relative to irradiated control without 10-HDA
Procedure: Fibroblasts were seeded into a 6-well plate at a seeding density of 2.2×10^5 cells/well and incubated overnight in an incubator (37° C., 5% CO2). When the confluence reached 40%-60%, 2 mL of culture medium containing a corresponding concentration of a test substance was added to each well according to different groups. The BC group was a blank control group without any drug intervention and was cultured only in 2 mL normal medium. The NC group was a negative control group without any drug intervention and was cultured only in 2 mL normal medium. The PC group was a positive control group containing VE at a final concentration of 7 μg/mL. The sample group contained 10-HDA at a final concentration of 0.25 mg/mL. After drug incubation for 24 hours, according to test groups, the NC group, PC group, and sample group were subjected to UV-A irradiation at a dose of 30 J/cm^2. After irradiation, the cells were further cultured for 24 hours in an incubator (37° C., 5% CO2). After incubation, cell culture supernatants were collected and tested according to the operation instructions of an 8-OHdG kit. […] Images were acquired under a fluorescence microscope and analyzed using Image-Pro® Plus image processing software.

fibroblasts [3] = assay: Mitochondrial function in UV-A irradiated fibroblasts (mitochondrial ROS, ATP, NADP+/NADPH and JC-1 kits); settings: 10-HDA 0.25 mg/mL, UV-A 30 J/cm^2, 24 hours after irradiation, relative to irradiated control; for inhibition at 250 µg/mL: Fibroblast, light or radiation study
Procedure: Fibroblasts were seeded into a 6-well plate at a seeding density of 2.2×10^5 cells/well and incubated overnight in an incubator (37° C., 5% CO2). When the confluence reached 40%-60%, 2 mL of culture medium containing a corresponding concentration of a test substance was added to each well according to different groups. The BC group was a blank control group without any drug intervention and was cultured only in 2 mL normal medium. The NC group was a negative control group without any drug intervention and was cultured only in 2 mL normal medium. The PC group was a positive control group containing VE at a final concentration of 7 μg/mL. The sample group contained 10-HDA at a final concentration of 0.25 mg/mL. After drug incubation for 24 hours, according to test grouping, the NC group, PC group, and sample group were subjected to UV-A irradiation at a dose of 30 J/cm^2. After irradiation, the cells were further cultured for 24 hours in an incubator (37° C., 5% CO2). After incubation, mitochondrial functions were assessed according to instructions of a mitochondrial ROS detection kit, a mitochondrial ATP detection kit (Beyotime), a mitochondrial NADP^+/NADPH detection kit (WST-8 method), and a JC-1 mitochondrial membrane potential detection kit.

| SMILES | telomere length increase relative to the NC group (fibroblasts [1]) | ceramide/protein (total ceramide normalized by sample protein amount) increase (3D epidermal model) | fatty acid/protein (total fatty acid normalized by sample protein amount) increase (3D epidermal model) | total ceramide increase (3D epidermal model) | total fatty acid increase (3D epidermal model) | inhibition at 250 µg/mL (fibroblasts [2]; immunofluorescence, read-out: γ-H2AX inhibition rate) | inhibition at 250 µg/mL (fibroblasts [2]; read-out: 8-OHdG inhibition rate) | NADPH content increase (fibroblasts [3]) | mitochondrial ATP content increase (fibroblasts [3]) | inhibition at 250 µg/mL (fibroblasts [3]; read-out: early apoptosis rate inhibition rate) | inhibition at 250 µg/mL (fibroblasts [3]; read-out: mitochondrial ROS inhibition rate) |
| --- | --- | --- | --- | --- | --- | --- | --- | --- | --- | --- | --- |
| CC(C)(O)[C@@H]1CC[C@](C)([C@H]2[C@@H](O)C[C@@]3(C)[C@@H]4C[C@H](O)[C@H]5C(C)(C)[C@@H](O)CC[C@@]56C[C@@]46CC[C@]23C)O1 [cycloastragenol, reference compound] | 43.1% | – | – | – | – | – | – | – | – | – | – |
| O=C(O)C=CCCCCCCCO [10-HDA, 10-hydroxy-2-decenoic acid] | – | 47.64% | 39.0% | 35.37% | 27.51% | 47.2% | 45.1% | 15.13% | 56.23% | 12.7% | 70.7% |

Reference: patent US20260160767A1, “Biosynthetic Method for Preparing 10-Hydroxy-2-Decenoic Acid and Use Thereof in Skin Care” (SHANDONG FREDA BIOTECH CO., LTD., priority 2023, published 2026)
